# Results as given in patent publication US12109184B2, “Personalized methods of treating cancer” (CANCER RESEARCH TECHNOLOGY LIMITED, priority 2020, dated 2024).
# Entries after “also recorded” stand apart in the source; their conditions may differ.
# What was measured:
# [1] = tested on: breast, colorectal and pancreatic cancer cell lines; experiment: Cell counting in complete or cysteine-free medium, cell lines not given; type: cell-based; details: supplementation during cysteine starvation
# [2] = tested on: MDA-MB-231, MIAPaCa-2 and PANC-1 cells; experiment: Cell counting during cysteine starvation, starvation-sensitive cell lines; type: cell-based; details: medium without cysteine
# Protocol: The base medium formulation contained 0.2 mM L-histidine, 0.4 mM L-isoleucine, 0.4 mM L-leucine, 0.4 mM L-lysine, 0.2 mM L-phenylalanine, 0.4 mM L-threonine, 0.08 mM L-tryptophan, 0.4 mM L-valine, 0.2 mM L-arginine, 2 mM L-glutamine, 0.2 mM L-tyrosine, 0.4 mM L-alanine, 0.3 mM L-proline, 0.15 mM L-glutamic acid, 0.1 mM L-aspartic acid, 0.2 mM L-asparagine, and 0.4 mM glycine.
# DAPI-stained cell nuclei were detected via microscopy.
# AMD1 inhibitor sardomozide/SAM486A, GPX4 inhibitor RSL3, and CSE inhibitor beta-cyano-L-alanine were used.
# For experiments using spermine oxidase (SMOX) and polyamine oxidase (PAOX) inhibitors or MTOB, cells were pre-treated with stated concentrations for 16 hours in complete medium. After pre-treatment, cells were washed in PBS, and treatment was continued in complete or cysteine-free medium for stated times. After treatment was finished, cells were fixed and stained as described above. For experiments using MTA, polyamines, GPX4 and CSE inhibitors, treatment started at the same time as cysteine starvation. For experiments involving hypoxic conditions, cells were seeded in normoxic conditions and allowed to adhere for 24 hours before control and cysteine starvation medium was added and cells were immediately transferred either to a humidified cell culture incubator set to 37° C. in 20% O2 (normoxia), or a hypoxia chamber set to 37° C. in 1% O2 (hypoxia) for the stated times. Cells were fixed immediately and stained as described above.
compound,measurement,setting,value
CSCC[C@H](N)C(=O)O [methionine],rescue from cysteine starvation-induced cell death (summary in discussion),[1],unable to provide rescue; also recorded: did not
same,sensitivity to cysteine starvation versus methionine concentration,"[2]; methionine 0 to 10 μM, 17 h and 41 h",remained sensitive to cysteine starvation down to 5 μM methionine
same,sensitivity to cysteine starvation versus methionine concentration,"[2]; methionine 10 μM-1000 μM, 20 h",remained highly sensitive
